Source: ChEMBL document CHEMBL5724914, “Linking interpersonal differences in gut microbiota composition and drug biotransformation activity” (2024)

Experiments:
[1] = (§1) The drug is tested on Z-028 corresponding to mouse gut metagenome with ENA study accession number: PRJEB37062 and ENA sample accession number: ERS12561827 for biotransformation under anaerobic condition. The drug concentrations were measured over 9 timepoints collected between 0 and 24 hours of incubation by liquid-chromatography-coupled mass spectrometry (LC–MS); conditions: 2 µM
[2] = as §1, with “Z-026” for “Z-028”, “to” for “to mouse gut”, “ERS12561825” for “ERS12561827”; conditions: 2 µM
[3] = as §1, with “Z-023” for “Z-028”, “to” for “to mouse gut”, “ERS12561822” for “ERS12561827”; conditions: 2 µM
[4] = as §1, with “Z-022” for “Z-028”, “ERS12561821” for “ERS12561827”; conditions: 2 µM
[5] = as §1, with “Z-021” for “Z-028”, “to” for “to mouse gut”, “ERS12561820” for “ERS12561827”; conditions: 2 µM
[6] = as §1, with “Z-016” for “Z-028”, “ERS12561815” for “ERS12561827”; conditions: 2 µM
[7] = as §1, with “Z-013” for “Z-028”, “rabbit” for “mouse”, “ERS12561813” for “ERS12561827”; conditions: 2 µM
[8] = as §1, with “Z-007” for “Z-028”, “rat” for “mouse”, “ERS12561807” for “ERS12561827”; conditions: 2 µM
[9] = as §1, with “Z-001” for “Z-028”, “ERS12561801” for “ERS12561827”; conditions: 2 µM
[10] = as §1, with “WLS-098” for “Z-028”, “human” for “mouse”, “ERS12561754” for “ERS12561827”; conditions: 2 µM
[11] = as §1, with “WLS-007” for “Z-028”, “human” for “mouse”, “ERS12561742” for “ERS12561827”; conditions: 2 µM
[12] = human gut metagenome, 24 h, 2 µM
[13] = human gut metagenome, 24 h, 2 µM; remark: listed apart in the source
[14] = human gut metagenome, 24 h, 2 µM; remark: listed apart in the source
[15] = human gut metagenome, 24 h, 2 µM; remark: listed apart in the source
[16] = human gut metagenome, 24 h, 2 µM; remark: listed apart in the source
[17] = human gut metagenome, 24 h, 2 µM; remark: listed apart in the source
[18] = human gut metagenome, 24 h, 2 µM; remark: listed apart in the source
[19] = human gut metagenome, 24 h, 2 µM; remark: listed apart in the source
[20] = human gut metagenome, 24 h, 2 µM; remark: listed apart in the source
Note: call rule not given here.

Structure (SMILES) | Bacterial Biotransformation [1] | Bacterial Biotransformation [2] | Bacterial Biotransformation [3] | Bacterial Biotransformation [4] | Bacterial Biotransformation [5] | Bacterial Biotransformation [6] | Bacterial Biotransformation [7] | Bacterial Biotransformation [8] | Bacterial Biotransformation [9] | Bacterial Biotransformation [10] | Bacterial Biotransformation [11] | Bacterial Biotransformation [12] | Bacterial Biotransformation [13] | Bacterial Biotransformation [14] | Bacterial Biotransformation [15] | Bacterial Biotransformation [16] | Bacterial Biotransformation [17] | Bacterial Biotransformation [18] | Bacterial Biotransformation [19] | Bacterial Biotransformation [20]
CCN(CC)CC#CCOC(=O)C(O)(c1ccccc1)C1CCCCC1.Cl (stereo not given) [OXYBUTYNIN CHLORIDE] | Compound NOT metabolized | Compound NOT metabolized | Compound metabolized | Compound metabolized | Compound metabolized | Compound NOT metabolized | Compound NOT metabolized | Compound NOT metabolized | Compound metabolized | Compound metabolized | Compound metabolized | Compound metabolized | Compound NOT metabolized | Compound metabolized | Compound metabolized | Compound metabolized | Compound metabolized | Compound metabolized | Compound metabolized | Compound metabolized
Fc1ccc([C@@H]2CCNC[C@H]2COc2ccc3c(c2)OCO3)cc1 [PAROXETINE] | Compound NOT metabolized | Compound NOT metabolized | Compound metabolized | Compound metabolized | Compound metabolized | Compound NOT metabolized | Compound NOT metabolized | Compound NOT metabolized | Compound NOT metabolized | Compound metabolized | Compound NOT metabolized | Compound NOT metabolized | Compound metabolized | Compound NOT metabolized | Compound metabolized | Compound NOT metabolized | Compound NOT metabolized | Compound metabolized | Compound NOT metabolized | Compound metabolized
O=c1[nH]c2ccccc2n1C1CCN(CCCC(c2ccc(F)cc2)c2ccc(F)cc2)CC1 [PIMOZIDE] | Compound NOT metabolized | Compound NOT metabolized | Compound NOT metabolized | Compound NOT metabolized | Compound metabolized | Compound metabolized | Compound metabolized | Compound metabolized | Compound metabolized | Compound metabolized | Compound metabolized | Compound metabolized | Compound NOT metabolized | Compound metabolized | Compound metabolized | Compound metabolized | Compound metabolized | Compound metabolized | Compound NOT metabolized | Compound metabolized
COc1cc2nc(N3CCN(C(=O)c4ccco4)CC3)nc(N)c2cc1OC [PRAZOSIN] | Compound NOT metabolized | Compound NOT metabolized | Compound NOT metabolized | Compound NOT metabolized | Compound NOT metabolized | Compound NOT metabolized | Compound NOT metabolized | Compound NOT metabolized | Compound NOT metabolized | Compound metabolized | Compound NOT metabolized | Compound NOT metabolized | Compound NOT metabolized | Compound NOT metabolized | Compound NOT metabolized | Compound NOT metabolized | Compound metabolized | Compound metabolized | Compound NOT metabolized | Compound metabolized
CS(=O)(=O)O.OC(CCN1CCCCC1)(c1ccccc1)c1ccccc1 [PRIDINOL METHANESULFONATE] | Compound NOT metabolized | Compound NOT metabolized | Compound NOT metabolized | Compound NOT metabolized | Compound NOT metabolized | Compound NOT metabolized | Compound NOT metabolized | Compound NOT metabolized | Compound NOT metabolized | Compound metabolized | Compound NOT metabolized | Compound NOT metabolized | Compound NOT metabolized | Compound NOT metabolized | Compound metabolized | Compound NOT metabolized | Compound NOT metabolized | Compound metabolized | Compound NOT metabolized | Compound metabolized
CC(CN1c2ccccc2Sc2ccccc21)N(C)C (stereo not given) [PROMETHAZINE] | Compound NOT metabolized | Compound NOT metabolized | Compound metabolized | Compound NOT metabolized | Compound NOT metabolized | Compound NOT metabolized | Compound NOT metabolized | Compound NOT metabolized | Compound NOT metabolized | Compound metabolized | Compound NOT metabolized | Compound metabolized | Compound NOT metabolized | Compound metabolized | Compound metabolized | Compound NOT metabolized | Compound NOT metabolized | Compound metabolized | Compound metabolized | Compound NOT metabolized
OCCOCCN1CCN(C2=Nc3ccccc3Sc3ccccc32)CC1 [QUETIAPINE] | Compound NOT metabolized | Compound NOT metabolized | Compound NOT metabolized | Compound NOT metabolized | Compound NOT metabolized | Compound NOT metabolized | Compound NOT metabolized | Compound NOT metabolized | Compound NOT metabolized | Compound metabolized | Compound NOT metabolized | Compound NOT metabolized | Compound NOT metabolized | Compound NOT metabolized | Compound metabolized | Compound NOT metabolized | Compound metabolized | Compound metabolized | Compound NOT metabolized | Compound metabolized
CCC(=O)NCC[C@@H]1CCc2ccc3c(c21)CCO3 [RAMELTEON] | Compound NOT metabolized | Compound NOT metabolized | Compound metabolized | Compound metabolized | Compound metabolized | Compound metabolized | Compound metabolized | Compound NOT metabolized | Compound NOT metabolized | Compound metabolized | Compound NOT metabolized | Compound metabolized | Compound metabolized | Compound metabolized | Compound metabolized | Compound metabolized | Compound metabolized | Compound metabolized | Compound metabolized | Compound metabolized
